Experimental findings from ChEMBL document CHEMBL4396906, “Design, synthesis and activity of novel 2,6-disubstituted purine derivatives, potential small molecule inhibitors of signal transducer and activator of transcription 3” (Eur J Med Chem, 2019) are described below.

The source made the active and inactive calls. No cut-off for these calls is given here.

In the test the target is T1, Signal transducer and activator of transcription 1-alpha/beta (Homo sapiens) (UniProt P42224).
T1 sequence (whole entry): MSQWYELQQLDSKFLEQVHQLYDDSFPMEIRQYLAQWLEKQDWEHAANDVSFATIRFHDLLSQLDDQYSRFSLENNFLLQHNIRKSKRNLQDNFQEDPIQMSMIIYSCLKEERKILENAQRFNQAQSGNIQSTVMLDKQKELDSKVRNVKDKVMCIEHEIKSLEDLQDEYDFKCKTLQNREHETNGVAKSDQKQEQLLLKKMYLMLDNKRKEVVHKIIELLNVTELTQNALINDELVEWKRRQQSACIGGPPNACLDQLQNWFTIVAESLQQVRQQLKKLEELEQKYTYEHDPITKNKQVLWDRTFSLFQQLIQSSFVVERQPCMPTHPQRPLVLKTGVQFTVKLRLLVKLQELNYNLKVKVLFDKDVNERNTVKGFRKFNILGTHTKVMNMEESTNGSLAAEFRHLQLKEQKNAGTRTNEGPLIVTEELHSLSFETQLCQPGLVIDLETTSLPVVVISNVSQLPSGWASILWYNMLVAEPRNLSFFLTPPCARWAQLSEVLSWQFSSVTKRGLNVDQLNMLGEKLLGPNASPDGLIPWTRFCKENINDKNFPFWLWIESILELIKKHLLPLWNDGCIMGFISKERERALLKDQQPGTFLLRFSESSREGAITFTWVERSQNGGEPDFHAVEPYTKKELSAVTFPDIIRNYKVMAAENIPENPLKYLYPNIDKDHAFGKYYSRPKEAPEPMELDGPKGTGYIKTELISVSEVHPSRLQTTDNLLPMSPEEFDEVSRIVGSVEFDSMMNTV
In words: Inhibition of STAT1 (unknown origin) expressed in MDA-MB-231 cells transfected with pSTAT1-Luciferase construct assessed as reduction in STAT1 promoter activity by measuring luciferase activity at 1 to 5 uM after 24 hrs post transfection by dual luciferase reporter gene assay. The format is cell-based.

Consider `O=C(Nc1nc(NCc2ccc(Cl)cc2)c2nc[nH]c2n1)c1ccccc1`, for which the outcome was inactive.
